# System: downstream signals (STAT3, AKT, MAPK) of the CEP55-RET fusion polypeptide in NIH-3T3 cells
# Assay: Western blotting of downstream signals of the RET fusion polypeptide after serum starvation and culture with a RET tyrosine kinase inhibitor
# Format: cell-based, murine
# Conditions: inhibitor 1 μM in medium after serum starvation; NIH-3T3 cells expressing wild-type CEP55-RET; FIG. 7
# Description: In this figure, “CEP55-RET” represents the results for cell lines expressing the CEP55-RET fusion polypeptide, and “KIF5B-RET” represents the results for cell lines expressing the KIF5B-RET fusion polypeptide. […] The “STAT3” and “p-STAT3 (Y705)” rows show the results of detecting STAT3 and phosphorylated STAT3, respectively. The “AKT” and “p-AKT (S473)” show the results of detecting AKT and phosphorylated AKT, respectively. The “MAPK” and “p-MAPK (T202/Y204)” rows show the results of detecting MAPK and phosphorylated MAPK, respectively.
# Next, normal murine fibroblast line NIH-3T3 cells were infected with each of the thus-prepared retroviral vectors to obtain cell lines stably expressing the wild-type or the mutated CEP55-RET fusion polypeptide.
# In addition, the cell lines stably expressing the wild-type or the mutated RET fusion polypeptide were each cultured in a liquid medium, subjected to serum starvation, and then cultured again with the medium being replaced with the one supplemented with a RET tyrosine kinase inhibitor (vandetanib or XL184). Protein from each of the thus-obtained cell lines was extracted and subjected to Western blotting analysis using antibodies against various phosphorylated or unphosphorylated proteins to thereby analyze the downstream signals of the RET fusion polypeptides.
smiles,measurement,value
"COc1cc2c(Nc3ccc(Br)cc3F)ncnc2cc1OCC1CCN(C)CC1 [V, 4-(4-bromo-2-fluoroanilino)-6-methoxy-7-(1-methylpiperidin-4-ylmethoxy)quinazoline]","phosphorylation of MAPK, p-MAPK (T202/Y204705)",significantly suppressed
same,"phosphorylation of STATS, p-STAT3 (Y705)",significantly suppressed

# — patent US20150177246A1, “FUSION GENE OF CEP55 GENE AND RET GENE” (NATIONAL CANCER CENTER, priority 2012, published 2015)
